From US12268694B2, “Combination pharmaceutical agents as RSV inhibitors” (Enanta Pharmaceuticals, Inc., priority 2017, dated 2025)
Like-named read-outs stand apart in the source and are kept apart here.

Tested on: genotype A, "Long" strain RSV
Assay: RSV-A assay: CPE protection in HEp-2 cells, ATPlite readout
Type: cell-based, human respiratory syncytial virus
Outline: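 EC50 derives from ATPlite luminescence after 5-day culture of RSV Long-infected (MOI 0.1) HEp-2 cells, seeded 8,000/well, exposed to duplicate 2-fold compound series. CC50 comes from an identical plate receiving medium instead of virus.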

[1] = human respiratory syncytial virus, HEp-2, read-out: Human RSV-A (“Long” strain) EC50
[2] = HEp-2 cells, RSV-A Long strain, ATPlite readout, read-out: Human RSV-A (“Long” strain) EC50

CN(CC(C)(C)O)c1cc(C(F)(F)F)cnc1-c1nnc(N[C@H]2N=C(c3ccccc3)c3ccccc3NC2=O)o1 [Example 308]
EC50 [1]: > 800 nM

N#Cc1ccc(-c2nnc(N[C@H]3N=C(c4ccccc4)c4ccccc4NC3=O)o2)c(-c2ccsc2)c1 [Example 309]
EC50 [1]: > 800 nM

COCCn1nccc1-c1nnc(N[C@H]2N=C(c3ccccc3)c3ccccc3NC2=O)o1 [Example 310]
EC50 [1]: > 800 nM

C#Cc1cnc(-c2nnc(N[C@H]3N=C(c4ccccc4)c4ccccc4NC3=O)o2)c(N2CCOCC2)c1 [Example 311]
EC50 [1]: < 400 nM

O=C1Nc2ccccc2C(c2ccccc2)=N[C@@H]1Nc1nnc(-c2ncc(C3=CCCCC3)cc2N2CCOCC2)o1 [Example 312]
EC50 [1]: 400 to 800 nM

O=C1Nc2ccccc2C(c2ccccc2)=N[C@@H]1Nc1nnc(-c2ncc(C3CCCCC3)cc2N2CCOCC2)o1 [Example 313]
EC50 [1]: < 400 nM

O=C1Nc2ccccc2C(c2ccccc2)=N[C@@H]1Nc1nnc(-c2ncc(N3CCCC3)cc2N2CCOCC2)o1 [Example 314]
EC50 [1]: < 400 nM

Cn1cc(-c2cc(C#N)ccc2-c2nnc(N[C@H]3N=C(c4ccccc4)c4ccccc4NC3=O)o2)ccc1=O [Example 315]
EC50 [1]: > 800 nM

O=C1Nc2ccccc2C(c2ccccc2)=N[C@@H]1Nc1nnc(-c2ncc3ccccc3c2N2CCOCC2)o1 [Example 316]
EC50 [1]: > 800 nM

O=C1Nc2ccccc2C(c2ccccc2)=N[C@@H]1Nc1nnc(-c2ccc(N3CCCC3)cc2N2CCOCC2)o1 [Example 317]
EC50 [1]: < 400 nM

O=C1Nc2ccccc2C(c2ccccc2)=N[C@@H]1Nc1nnc(-c2nc(C3CC3)ccc2N2CCOCC2)o1 [Example 318]
EC50 [1]: < 400 nM

N#Cc1ccc(-c2nnc(N[C@H]3N=C(c4ccccc4)c4ccccc4NC3=O)o2)c(-c2ccoc2)c1 [Example 319]
EC50 [1]: > 800 nM

Cc1noc(C)c1-c1cc(C#N)ccc1-c1nnc(N[C@H]2N=C(c3ccccc3)c3ccccc3NC2=O)o1 [Example 320]
EC50 [1]: > 800 nM

O=C1Nc2ccccc2C(c2ccccc2)=N[C@@H]1Nc1nnc(-c2ncc(C3CC3)cc2N2CC3CCC(C2)O3)o1 [Example 321]
EC50 [1]: < 400 nM

N#Cc1cc(N2CCOCC2)c(-c2nnc(N[C@H]3N=C(c4ccccc4)c4ccccc4NC3=O)o2)s1 [Example 323]
EC50 [1]: < 400 nM

N#Cc1ccc(N2CCOCC2)c(-c2nnc(N[C@H]3N=C(c4ccccc4)c4ccccc4NC3=O)o2)n1 [Example 324]
EC50 [1]: < 400 nM

N#Cc1cnc(-c2nnc(N[C@H]3N=C(c4ccccc4)c4ccccc4NC3=O)o2)c(N2CCOCC2)c1 [Example 325]
EC50 [1]: < 400 nM

C[C@@H]1CN(c2cc(C#N)cnc2-c2nnc(N[C@H]3N=C(c4ccccc4)c4ccccc4NC3=O)o2)CCO1 [Example 326]
EC50 [1]: 400 to 800 nM

CN1CCN(c2cc(C(F)(F)F)cnc2-c2nnc(N[C@H]3N=C(c4ccccc4)c4ccccc4NC3=O)o2)CC1 [Example 327]
EC50 [1]: 400 to 800 nM

O=C1Nc2ccccc2C(c2ccccc2)=N[C@@H]1Nc1nnc(-c2ncc(C(F)(F)F)cc2N2CCC(O)CC2)o1 [Example 328]
EC50 [1]: > 800 nM

C[C@H]1CN(c2cc(C#N)cnc2-c2nnc(N[C@H]3N=C(c4ccccc4)c4ccccc4NC3=O)o2)CCO1 [Example 329]
EC50 [1]: < 400 nM

Cc1cc(-c2nnc(N[C@H]3N=C(c4ccccc4)c4ccccc4NC3=O)o2)c(N2CCOCC2)s1 [Example 330]
EC50 [1]: < 400 nM

N#CCNc1cc(C(F)(F)F)cnc1-c1nnc(N[C@H]2N=C(c3ccccc3)c3ccccc3NC2=O)o1 [Example 331]
EC50 [1]: > 800 nM

CS(=O)(=O)c1cnc(-c2nnc(N[C@H]3N=C(c4ccccc4)c4ccccc4NC3=O)o2)c(N2CCOCC2)c1 [Example 332]
EC50 [1]: > 800 nM

N#Cc1cnc(-c2nnc(N[C@H]3N=C(c4ccccc4)c4ccccc4NC3=O)o2)c(N2C3CCC2COC3)c1 [Example 333]
EC50 [1]: 400 to 800 nM

COCCNc1sc(C)nc1-c1nnc(N[C@H]2N=C(c3ccccc3)c3ccccc3NC2=O)o1 [Example 335]
EC50 [1]: < 400 nM

Cc1nc(-c2nnc(N[C@H]3N=C(c4ccccc4)c4ccccc4NC3=O)o2)c(N2CCOCC2)o1 [Example 337]
EC50 [1]: < 400 nM

COc1ccccc1-c1nc(-c2nnc(N[C@H]3N=C(c4ccccc4)c4ccccc4NC3=O)o2)c(N2CCOCC2)s1 [Example 342]
EC50 [1]: < 400 nM

Cc1nc(-c2nnc(N[C@H]3N=C(c4ccccc4)c4ccccc4NC3=O)o2)cs1 [Example 343]
EC50 [1]: > 800 nM

Cc1nc(-c2nnc(N[C@H]3N=C(c4ccccc4)c4ccccc4NC3=O)o2)c(Cl)s1 [Example 344]
EC50 [1]: > 800 nM

Cc1nc(-c2nnc(N[C@H]3N=C(c4ccccc4)c4ccccc4NC3=O)o2)c(C2=CCOCC2)s1 [Example 345, (S)-3-((5-(5-(3,6-dihydro-2H-pyran-4-yl)-2-methylthiazol-4-yl)-1,3,4-oxadiazol-2-yl)amino)-5-phenyl-1,3-dihydro-2H-benzo[e][1,4]diazepin-2-one]
EC50 [1]: < 400 nM

Cc1nc(-c2nnc(N[C@H]3N=C(c4ccccc4)c4ccccc4NC3=O)o2)c(C2CCOCC2)s1 [Example 346, (S)-3-((5-(2-methyl-5-(tetrahydro-2H-pyran-4-yl)thiazol-4-yl)-1,3,4-oxadiazol-2-yl)amino)-5-phenyl-1,3-dihydro-2H-benzo[e][1,4]diazepin-2-one]
EC50 [1]: < 400 nM

O=C1Nc2ccccc2C(c2ccccc2)=N[C@@H]1Nc1nnc(-c2ncsc2C2=CCOCC2)o1 [Example 347]
EC50 [1]: < 400 nM

O=C1Nc2ccccc2C(c2ccccc2)=N[C@@H]1Nc1nnc(-c2occc2N2CCOCC2)o1 [Example 348]
EC50 [1]: < 400 nM

O=C1Nc2ccccc2C(c2ccccc2)=N[C@@H]1Nc1nnc(-c2ccnn2-c2ccccc2)o1 [Example 349]
EC50 [1]: > 800 nM

O=C1Nc2ccccc2C(c2ccccc2)=N[C@@H]1Nc1nnc(-c2cnn(-c3ccccc3)c2)o1 [Example 350]
EC50 [1]: 400 to 800 nM

O=C1Nc2ccccc2C(c2ccccc2)=NC1Nc1nnc(-c2ccccc2C2=CCOCC2)o1 (stereo not shown) [Example 353, 3-((5-(2-(3,6-dihydro-2H-pyran-4-yl)phenyl)-1,3,4-oxadiazol-2-yl)amino)-5-phenyl-1,3-dihydro-2H-benzo[e][1,4]diazepin-2-one]
EC50 [1]: > 800 nM

O=C1Nc2ccccc2C(c2ccccc2)=NC1Nc1nnc(-c2ccccc2C2CCOCC2)o1 (stereo not shown) [Example 354]
EC50 [1]: > 800 nM

O=C1Nc2c(F)cccc2C(c2ccccc2)=N[C@H]1Nc1nnc(-c2ccccc2N2CCOCC2)o1 [Example 355b]
EC50 [1]: > 800 nM

O=C1Nc2c(F)cccc2C(c2ccccc2)=NC1Nc1nnc(-c2ccc(N3CCOCC3)cc2)o1 (stereo not shown) [Example 356]
EC50 [1]: 400 to 800 nM

O=C1Nc2c(F)cccc2C(c2ccccc2)=N[C@@H]1Nc1nnc(-c2ncc(C(F)(F)F)cc2N2CCOCC2)o1 [Example 360]
EC50 [2]: < 400 nM

N#Cc1cnc(-c2nnc(N[C@H]3N=C(c4ccccc4)c4cccc(F)c4NC3=O)o2)c(N2CCOCC2)c1 [Example 361]
EC50 [1]: < 400 nM

O=C1Nc2ccccc2C(c2ccccc2)=NC1Nc1nnc(-c2ccc(F)cc2)[nH]1 (stereo not shown) [Example 363]
EC50 [1]: > 800 nM

N#Cc1ccc(-c2nnc(NC3N=C(c4ccccc4)c4ccccc4NC3=O)[nH]2)cc1 (stereo not shown) [Example 365]
EC50 [1]: 400 to 800 nM

O=C1Nc2ccccc2C(c2ccccc2)=NC1Nc1nnc(-c2ccncc2)[nH]1 (stereo not shown) [Example 366]
EC50 [1]: > 800 nM

O=C1Nc2ccccc2C(c2ccccc2)=NC1Nc1nnc(-c2ccccc2N2CCOCC2)[nH]1 (stereo not shown) [Example 367]
EC50 [1]: > 800 nM

O=C1Nc2ccccc2C(c2ccccc2)=NC1Nc1ncc(-c2ccc(F)cc2)o1 (stereo not shown) [Example 369]
EC50 [1]: > 800 nM

O=C1Nc2ccccc2C(c2ccccc2)=NC1Nc1ncc(-c2ccc(Br)cc2)o1 (stereo not shown) [Example 370]
EC50 [1]: > 800 nM

O=C1Nc2ccccc2C(c2ccccc2)=NC1Nc1ncc(-c2ccccc2)cn1 (stereo not shown) [Example 371]
EC50 [1]: > 800 nM

O=C1Nc2ccccc2C(c2ccccc2)=NC1Nc1nnc(C2CC2)[nH]1 (stereo not shown) [Example 372]
EC50 [1]: > 800 nM

O=C1Nc2ccccc2C(c2ccccc2)=NC1Nc1cnc(-c2ccc(F)cc2)cn1 (stereo not shown) [Example 373]
EC50 [1]: > 800 nM

O=C1Nc2ccccc2C(c2ccccc2)=NC1Nc1ccc(-c2ccc(F)cc2)nn1 (stereo not shown) [Example 374]
EC50 [1]: > 800 nM

O=C1Nc2ccccc2C(c2ccccc2)=NC1Nc1ccc(-c2ccncc2)nn1 (stereo not shown) [Example 375]
EC50 [1]: > 800 nM

COc1ccc(-c2ccc(NC3N=C(c4ccccc4)c4ccccc4NC3=O)nn2)cc1 (stereo not shown) [Example 376]
EC50 [1]: > 800 nM

O=C1Nc2ccccc2C(c2ccccc2)=NC1Nc1ccc(-c2ccccc2N2CCOCC2)nn1 (stereo not shown) [Example 378]
EC50 [1]: > 800 nM

O=C1Nc2ccccc2C(c2ccccc2F)=NC1Nc1nnc(-c2ccc(F)cc2)o1 (stereo not shown) [Example 379]
EC50 [1]: > 800 nM

O=C1Nc2ccccc2C(c2cccc(F)c2)=NC1Nc1nnc(-c2ccc(F)cc2)o1 (stereo not shown) [Example 380]
EC50 [1]: 400 to 800 nM

N#Cc1cccc(C2=NC(Nc3nnc(-c4ccc(F)cc4)o3)C(=O)Nc3ccccc32)c1 (stereo not shown) [Example 381]
EC50 [1]: > 800 nM

O=C1Nc2ccccc2C(c2ccc(F)cc2)=NC1Nc1nnc(-c2ccc(F)cc2)o1 (stereo not shown) [Example 382]
EC50 [1]: > 800 nM

O=C1Nc2ccccc2C(c2ccccc2)=N[C@@H]1Nc1nnc(-c2cc(C(F)(F)F)sc2N2CCOCC2)o1 [Example 383]
EC50 [1]: < 400 nM

O=C1Nc2ccccc2C(c2ccccc2)=N[C@@H]1Nc1nnc(-c2cc(C3CC3)sc2N2CCOCC2)o1 [Example 384]
EC50 [1]: < 400 nM

O=C1Nc2ccccc2C(c2ccccc2)=N[C@@H]1Nc1nnc(-c2nc(-c3ccc(F)cn3)sc2N2CCOCC2)o1 [Example 389]
EC50 [1]: < 400 nM

O=C1Nc2ccccc2C(c2ccccc2)=N[C@@H]1Nc1nnc(-c2nc(-c3ccc(C(F)(F)F)nc3)sc2N2CCOCC2)o1 [Example 390]
EC50 [1]: < 400 nM

COC[C@@H]1C[C@H]1c1sc(C(F)(F)F)nc1-c1nnc(N[C@H]2N=C(c3ccccc3)c3ccccc3NC2=O)o1 [Example 394]
EC50 [2]: > 800 nM

COCCCc1sc(C(F)(F)F)nc1-c1nnc(N[C@H]2N=C(c3ccccc3)c3ccccc3NC2=O)o1 [Example 396]
EC50 [1]: > 800 nM

Cn1cc(-c2nc(-c3nnc(N[C@H]4N=C(c5ccccc5)c5ccccc5NC4=O)o3)c(N3CCOCC3)s2)cn1 [Example 399]
EC50 [1]: < 400 nM

O=C1Nc2ccccc2C(c2ccccc2)=NC1Nc1nnc(-c2nc(Br)sc2N2CCOCC2)o1 (stereo not shown) [Example 400]
EC50 [1]: < 400 nM
